Target: T1, Neutrophil elastase (Homo sapiens, UniProt P08246)
T1 sequence (P08246 whole entry): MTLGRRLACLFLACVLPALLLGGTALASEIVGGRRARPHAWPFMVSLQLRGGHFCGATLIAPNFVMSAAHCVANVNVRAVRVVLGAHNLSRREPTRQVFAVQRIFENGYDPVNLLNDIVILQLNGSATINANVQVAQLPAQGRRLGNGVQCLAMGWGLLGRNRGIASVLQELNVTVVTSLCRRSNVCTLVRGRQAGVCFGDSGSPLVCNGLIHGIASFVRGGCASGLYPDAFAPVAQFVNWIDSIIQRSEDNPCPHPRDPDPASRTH
Assay: Inhibition of human neutrophil elastase using chromogenic substrate (N-MeOSuc-Ala-Ala-Pro-Val-p-nitroanilide after 120 mins

IC50 [µM]	Structure (SMILES)
> 500	Cc1oc(=O)n(Cc2ccccc2)c1O
> 500	COc1ccc(C(=O)n2c(O)c(C)oc2=O)cc1

— BindingDB's records for doi:10.1016/j.bmcl.2012.04.093 (University of Lisbon, 2012)
